Results as given in patent US7345033B2, “Carbamoyl-and thiocarbamoyl-phosphonates and pharmaceutical compositions comprising them” (Yissum Research Development Company of the Hebrew …, priority 2003, dated 2008).
pIC50: −log10 of the molar value. “Also recorded” adds a separate entry of the source. Where two headings read alike, the source gives them in different places.

Columns and labels:
[1] = Acute in vivo toxicity in healthy mice; details: daily for two weeks at 50, 250 and 500 mg/kg
From the text: Determination of Acute in vivo Toxicity of Representative Carbamoylphosphonates

restenosis = assay: Rabbit model of restenosis (balloon injury, hypercholesterolemic); format: in vivo, New Zealand White rabbits; details: IP, total 70 mg/kg in 5 doses on days -1, +1, +4, +6, +8; after 30 days
Protocol: Rabbit Model of Restenosis
New Zealand White rabbits (Harlan Laboratories, Jerusalem, Israel) weighing 2.5 to 3.5 kg were used in accordance with the guidelines for animal care of the Hebrew University of Jerusalem and National Institutes of Health (USA). Animals were fed an atherogenic diet of 2% cholesterol and 6% peanut oil, starting 30 days before angioplasty. Hypercholesterolemia was ascertained (plasma cholesterol: 1200 mg/dL). Animals were anesthetized by xylazine (7 mg/kg) and ketamine (40 mg/kg). Heparin (200 U/kg), atropine (0.05 mg), and norfloxacin nicotinate (70 mg) were given. […] The control animals received saline. An investigator blinded to the type of experimental group performed the experiments. After euthanasia with pentothal, arteries were perfusion-fixed in situ with 150 mL of 4% formaldehyde solution (pH 7.4), processed for morphometric analysis, and stained with Verhoeff elastin staining, Mayer hematoxylin and eosin, and modified Movat pentachrome. Five animals were used in the experiment and five in the control group.
The marked inhibition of restenosis is unparalleled to other therapeutic modalities in this model (various antiinflammatories or antiproliferative agents). […] It should be noted that the larger lumen in the treatment group was achieved despite the general smaller size of the artery.

recombinant MMP-2 = biological target: T1, recombinant MMP-2 (Homo sapiens, UniProt P08253); assay: MMP inhibitory potency in vitro, succinylated-gelatin colorimetric assay; format: biochemical
T1 construct: purchased
T1 sequence (P08253 110-660): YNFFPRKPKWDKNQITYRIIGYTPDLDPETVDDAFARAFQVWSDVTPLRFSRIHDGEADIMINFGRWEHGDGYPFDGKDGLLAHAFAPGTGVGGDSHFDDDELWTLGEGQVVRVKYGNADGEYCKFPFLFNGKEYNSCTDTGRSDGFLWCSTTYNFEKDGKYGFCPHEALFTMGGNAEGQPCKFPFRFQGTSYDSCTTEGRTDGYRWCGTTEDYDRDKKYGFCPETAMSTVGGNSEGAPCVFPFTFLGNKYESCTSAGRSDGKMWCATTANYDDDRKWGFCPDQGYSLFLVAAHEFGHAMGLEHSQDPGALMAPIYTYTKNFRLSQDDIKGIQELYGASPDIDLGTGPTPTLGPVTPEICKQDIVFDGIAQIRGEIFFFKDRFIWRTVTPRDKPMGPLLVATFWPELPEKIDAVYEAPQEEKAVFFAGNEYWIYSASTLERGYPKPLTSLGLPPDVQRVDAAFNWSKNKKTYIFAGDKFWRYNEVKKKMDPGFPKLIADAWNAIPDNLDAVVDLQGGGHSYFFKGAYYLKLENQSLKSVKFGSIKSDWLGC
Protocol: (§1) Determination of MMP Inhibitory Potency (IC50 Values) in vitro
(§2) The commercially available recombinant MMP-2 and MMP-9 enzymes were incubated with succinylated-gelatin at four different concentrations for 3 h. The examined compounds were added at four to six different concentrations to the recombinant enzymes and the inhibitory potencies were expressed in a colorimetric change measured by an ELISA reader. The inhibitory activity (IC50) was calculated from the kinetic data obtained.

recombinant MMP-9 = biological target: T2, recombinant MMP-9 (Homo sapiens, UniProt P14780); assay: as above; format: biochemical
T2 construct: purchased
Protocol: as §1, §2

Endothelial cells = assay: Endothelial cell capillary tube formation; format: cell-based; details: read-out: Capillary Formation Inhibition % At 50 μM
From the text: Endothelial Cell Capillary Tube Formation
Some of the compounds were examined as to their potency to inhibit capillary formation, which is an in vitro model of angiogenesis, an essential step in the development of primary tumor and metastatic lesions. Endothelial cell migration to the newly formed tumor is the initial phase of angiogenesis, and is dependent on MMP expression. By using this assay that measures endothelial cell tube formation, the effects of some carbamoylphosphonates on angiogenesis at concentrations ranging from 100-5 μM were evaluated.
Description of the Endothelial Cell Capillary Tube Formation Experiment
Endothelial cells are harvested by 1 mM EDTA, and added to a Matrigel layer in a 24 well plate at 50,000 cells per well. After attachment, culture media (1 ml) is added and the plate is incubated as a monolayer culture. The plates are analyzed hourly using Hoffinan optics. This assay is used to evaluate inhibitory factors or stimulatory factors on capillary like structure formation, which may be added into the culture media.

[2] = test system: Human prostate tumor cells DU145, PC3 or LMCap; assay: Orthotopic prostate tumor model; format: in vivo, mice; details: 50 mg/kg IP daily for 5 weeks, vs untreated control
Protocol: Human prostate tumor cells DU145, PC3 or LMCap transfected with a luciferase gene were injected orthotopically into the prostate of male mice (2×10^6 cells/mouse). […] The mice were monitored for local tumor growth and metastasis formation with a cooled charged coupled device camera (CCCD) sensitive to photons, weekly, starting 14 days after tumor implantation. The emitted photons are converted into a digitalized image proportional to the amount of photons emitted by the tumor cell upon exposure to luciferin.

MMP-8 = MMP-8 (Homo sapiens, UniProt P22894); assay: Selectivity towards different MMPs: MMP-8; format: biochemical; details: Table 2
MMP-3 = MMP-3 (Homo sapiens, UniProt P08254); assay: Selectivity towards different MMPs: MMP-3; format: biochemical; details: Table 2
cancer cells = assay: Matrigel chemoinvasion assay (Boyden chambers); format: cell-based; details: 6 h, read-out: Chemoinvasion % inhibition at 50 μM
From the text: Matrigel Chemoinvasion Assay
This assay measures in vitro the potency of the compounds to repress the invasiveness of cancer cells, by inhibiting the MMPs produced by them. The assay uses a reconstituted basement membrane preparation, which is similar to the natural basement membranes that the tumor cells have to cross, in order to disseminate. The compounds examined have been added to the invasion chambers at various concentrations, and the resulted invasion was compared to untreated preparations.
Description of the of the Matrigel Chemoinvasion Experiment
a) The chemoinvasion assays were performed in Boyden chambers. Matrigel (25 μg) was dried on a polycarbonated filter (PVP free, Nucleopore). Fibroblast conditioned medium (obtained from confluent NIH-3T3 cells cultured in serum free DMEM) is used as the chemoattractant. […] The chambers were incubated in a humidified incubator at 37° C. in 5% CO2/95% air atmosphere for 6 h. The cells, which traversed the Matrigel layer and attached to the lower surface of the filter, were stained with Diff Quick (American Scientific Products) and counted.
The various compounds were examined as potential inhibitors at three concentrations: 100 μM, 50 μM and 10 μM.

MMP-1 = biological target: T3, MMP-1 (Homo sapiens, UniProt P03956); assay: Selectivity towards different MMPs: MMP-1; format: biochemical; details: Table 2
T3 sequence (P03956 100-469): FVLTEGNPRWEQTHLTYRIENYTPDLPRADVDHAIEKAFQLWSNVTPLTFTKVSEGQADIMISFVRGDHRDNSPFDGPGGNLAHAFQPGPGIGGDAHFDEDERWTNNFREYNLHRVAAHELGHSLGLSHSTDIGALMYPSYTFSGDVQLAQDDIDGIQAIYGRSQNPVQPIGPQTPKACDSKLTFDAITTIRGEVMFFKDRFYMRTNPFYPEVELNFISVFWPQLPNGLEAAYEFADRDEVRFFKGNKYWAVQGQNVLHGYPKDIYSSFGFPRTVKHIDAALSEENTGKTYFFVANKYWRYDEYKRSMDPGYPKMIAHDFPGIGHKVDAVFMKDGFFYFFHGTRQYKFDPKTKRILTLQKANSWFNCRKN

murine melanoma = assay: Tumor growth and metastasis in vivo, murine melanoma model; design: species or system mice; details: Mus musculus, 504 h
From the text: Tumor Growth and Metastasis in Animal Models—in vivo Test
The abilities of the novel carbamoylphosphonates to inhibit the formation of metastatic lesions in vivo were examined in the murine melanoma model both by intraperitoneal (IP) and peroral (PO) administration. […] This is especially important, since oral administration is the most convenient one for the patient, especially for long term chronic treatments such as those envisaged for drugs that are the subject of this application.

MMP-8, sequence (P22894 101-467, species assumed): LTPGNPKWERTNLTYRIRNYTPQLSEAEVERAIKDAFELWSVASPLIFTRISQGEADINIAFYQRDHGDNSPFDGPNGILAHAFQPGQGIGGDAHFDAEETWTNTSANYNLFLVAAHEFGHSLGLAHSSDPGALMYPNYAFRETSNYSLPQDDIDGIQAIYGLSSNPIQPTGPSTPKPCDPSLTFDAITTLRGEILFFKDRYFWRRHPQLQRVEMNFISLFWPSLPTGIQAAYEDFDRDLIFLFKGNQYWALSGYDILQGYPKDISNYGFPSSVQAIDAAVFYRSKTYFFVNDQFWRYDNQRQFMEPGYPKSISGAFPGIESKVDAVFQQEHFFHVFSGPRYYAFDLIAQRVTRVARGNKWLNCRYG
MMP-3, sequence (P08254 100-477, species assumed): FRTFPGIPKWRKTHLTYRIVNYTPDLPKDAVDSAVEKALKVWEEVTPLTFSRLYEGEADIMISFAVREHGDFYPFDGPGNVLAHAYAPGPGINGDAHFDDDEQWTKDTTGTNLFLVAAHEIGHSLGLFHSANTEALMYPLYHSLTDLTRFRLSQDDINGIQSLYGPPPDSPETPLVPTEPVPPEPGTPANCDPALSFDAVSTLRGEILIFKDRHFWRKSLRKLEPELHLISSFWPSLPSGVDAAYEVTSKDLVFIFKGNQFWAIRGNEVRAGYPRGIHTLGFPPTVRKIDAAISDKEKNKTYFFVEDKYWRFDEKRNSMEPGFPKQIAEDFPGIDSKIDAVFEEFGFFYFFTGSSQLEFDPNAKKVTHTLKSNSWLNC
T2 sequence (P14780 94-707, species assumed): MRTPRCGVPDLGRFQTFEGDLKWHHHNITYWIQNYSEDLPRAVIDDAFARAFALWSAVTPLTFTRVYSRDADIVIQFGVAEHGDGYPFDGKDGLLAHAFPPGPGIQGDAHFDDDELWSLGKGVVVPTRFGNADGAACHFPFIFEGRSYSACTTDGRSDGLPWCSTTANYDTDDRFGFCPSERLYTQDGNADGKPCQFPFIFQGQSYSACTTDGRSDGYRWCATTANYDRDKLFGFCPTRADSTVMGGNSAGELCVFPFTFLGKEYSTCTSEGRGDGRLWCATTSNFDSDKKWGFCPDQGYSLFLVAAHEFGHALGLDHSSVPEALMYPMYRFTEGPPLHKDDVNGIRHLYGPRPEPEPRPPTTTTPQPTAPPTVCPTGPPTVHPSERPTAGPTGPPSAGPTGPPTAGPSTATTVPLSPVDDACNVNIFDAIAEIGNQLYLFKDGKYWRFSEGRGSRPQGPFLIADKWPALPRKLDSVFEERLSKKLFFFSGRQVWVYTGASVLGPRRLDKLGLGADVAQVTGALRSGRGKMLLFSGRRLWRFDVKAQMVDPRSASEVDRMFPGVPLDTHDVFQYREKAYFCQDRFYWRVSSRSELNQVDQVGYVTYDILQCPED

Question: What does the source list for `N[C@@H]1CCCC[C@@H]1NC(=O)P(=O)(O)O` (relative stereo) [Compound 11, N-(cis-2-aminocyclohexyl)carbamoylphosphonic acid]?
Answer: toxicity [1]: devoid of any toxicity even at 10 times the effective dose, namely at 500 mg/kg; inhibition of restenosis (restenosis): significant and marked inhibition of restenosis; also recorded: selective in vivo activity against restenosis; pIC50 (recombinant MMP-2): 7.22; pIC50 (recombinant MMP-9): 4.70; inhibition at 50 µM (Endothelial cells): 72%; tumor dissemination (metastatic spread) [2]: significantly lower tumor dissemination; tumor volume (local tumor growth) [2]: significantly lower tumor volume; pIC50 (MMP-8): < 4.00; pIC50 (MMP-3): < 4.00; inhibition at 50 µM (cancer cells): 62%; pIC50 (MMP-1): < 4.00; inhibition in vivo at 50 mg/kg (murine melanoma; ip, read-out: In vivo murine melanoma % reduction IP): 77%; inhibition in vivo at 50 mg/kg (murine melanoma; po, read-out: In vivo murine melanoma % reduction PO): 86%
